Measured values published in patent US10030047B2 (Hoffmann-La Roche Inc., priority 2015, dated 2018).
Converted amounts (≈) assume the structure as drawn.

These compounds were tested on A. baumannii strain ATCC17978 (assay: 50% growth inhibitory concentration (IC50) determination, Iso-Sensitest broth). Settings: Acinetobacter baumannii; A. baumannii ATCC17978; Iso-Sensitest medium; OD 600 nm over 16 h; read-out: IC50 ATCC17978.
Type: cell-based
Description: The in vitro antimicrobial activity of the compounds was alternatively determined according to the following procedure:
The assay used a 10-points Iso-Sensitest broth medium to measure quantitatively the in vitro activity of the compounds against A. baumannii ATCC 17978.
Stock compounds in DMSO were serially twofold diluted (e.g. range from 50 to 0.097 μM final concentration) in 384 wells microtiter plates and inoculated with 49 μl the bacterial suspension in Iso-Sensitest medium to have a final cell concentration of ˜5×10^(5) CFU/ml in a final volume/well of 50 ul/well. Microtiter plates were incubated at 35±2° C.
Bacterial cell growth was determined with the measurement of optical density at λ=600 nm each 20 minutes over a time course of 16 h.
Growth inhibition was calculated during the logarithmic growth of the bacterial cells with determination of the concentration inhibiting 50% (IC50) and 90% (IC90) of the growth.
Tables 3, 4 and 5 provide the 50% growth inhibitory concentrations (IC50) in micromoles per liter of the compounds of present invention obtained against the A. baumannii strain ATCC17978.
With `CN1Cc2ccccc2Sc2ccccc2CNC(=O)[C@H](Cc2c[nH]c3ccccc23)NC(=O)[C@H](CCCN)NC(=O)[C@@H]1Cc1ccc(-c2ccccc2)cc1` [Example 117, (12S,15S,18S)-15-(3-Amino-propyl)-18-biphenyl-4-ylmethyl-12-(1H-indol-3-ylmethyl)-19-methyl-2-thia-10,13,16,19-tetraaza-tricyclo[19.4.0.0*3,8*]pentacosa-1(25),3,5,7,21,23-hexaene-11,14,17-trione] the IC50 was 8.1 µM.
Work on `NCCCC[C@@H]1NC(=O)[C@@H](CCCN)NCc2cccnc2Sc2c(ccc(-c3ccccc3)c2Cl)CNC(=O)[C@H](Cc2c[nH]c3ccccc23)NC1=O` [Example 124, (11R,14S,17S)-14-(4-Amino-butyl)-11-(3-amino-propyl)-25-chloro-17-(1H-indol-3-ylmethyl)-24-phenyl-2-thia-4,10,13,16,19-pentaaza-tricyclo[19.4.0.0*3,8*]pentacosa-1(25),3,5,7,21,23-hexaene-12,15,18-trione] yielded an IC50 of 34.9 µM.
Compound `NCCCC[C@@H]1NC(=O)[C@H](CCCN)NCc2cccnc2Sc2c(ccc(-c3ccccc3)c2Cl)CNC(=O)[C@H](Cc2c[nH]c3ccccc23)NC1=O` [Example 125, (11S,14S,17S)-14-(4-Amino-butyl)-11-(3-amino-propyl)-25-chloro-17-(1H-indol-3-ylmethyl)-24-phenyl-2-thia-4,10,13,16,19-pentaaza-tricyclo[19.4.0.0*3,8*]pentacosa-1(25),3,5,7,21,23-hexaene-12,15,18-trione] has an IC50 of 23.3 µM.
`CN1C(=O)[C@H](CCCCN)NC(=O)[C@@H](CCCN)NCc2cccnc2Sc2c(ccc(-c3ccccc3)c2Cl)CNC(=O)[C@@H]1Cc1c[nH]c2ccccc12` [Example 126, (11R,14S,17S)-14-(4-Amino-butyl)-11-(3-amino-propyl)-25-chloro-17-(1H-indol-3-ylmethyl)-16-methyl-24-phenyl-2-thia-4,10,13,16,19-pentaaza-tricyclo[19.4.0.0*3,8*]pentacosa-1(25),3,5,7,21,23-hexaene-12,15,18-trione] showed an IC50 of 30.3 µM.
`CN1C(=O)[C@H](CCCCN)NC(=O)[C@H](CCCN)NCc2cccnc2Sc2c(Cl)ccc(C(F)(F)F)c2CNC(=O)[C@@H]1Cc1ccc2ccccc2n1` [Example 132, (11S,14S,17S)-14-(4-Amino-butyl)-11-(3-amino-propyl)-25-chloro-16-methyl-17-quinolin-2-ylmethyl-22-trifluoromethyl-2-thia-4,10,13,16,19-pentaaza-tricyclo[19.4.0.0*3,8*]pentacosa-1(25),3,5,7,21,23-hexaene-12,15,18-trione] showed an IC50 of 17 µM.
With `CN1C(=O)[C@H](CCCN)NC(=O)[C@H](CCCN)NCc2ccccc2Sc2c(Cl)cc(Cl)cc2CNC(=O)[C@@H]1Cc1c[nH]c2ccccc12` [Example 133, (12S,15S,18S)— 15,18-Bis-(3-amino-propyl)-4,6-dichloro-12-(1H-indol-3-ylmethyl)-13-methyl-2-thia-10,13,16,19-tetraaza-tricyclo[19.4.0.0*3,8*]pentacosa-1(25),3,5,7,21,23-hexaene-11,14,17-trione] the IC50 was 0.1 µM.
Compound `CN1C(=O)[C@H](CCCCN)NC(=O)[C@H](CCCN)NCc2cccnc2Sc2c(Cl)ccc(C(F)(F)F)c2CNC(=O)[C@@H]1Cc1c[nH]c2ccc(Cl)cc12` [Example 135, (11S,14S,17S)-14-(4-Amino-butyl)-11-(3-amino-propyl)-25-chloro-17-(5-chloro-1H-indol-3-ylmethyl)-16-methyl-22-trifluoromethyl-2-thia-4,10,13,16,19-pentaaza-tricyclo[19.4.0.0*3,8*]pentacosa-1(25),3,5,7,21,23-hexaene-12,15,18-trione] has an IC50 of 0.2 µM.
`CN1C(=O)[C@H](CCCCN)NC(=O)[C@H](CCCN)NCc2cccnc2Sc2c(Cl)ccc(C(F)(F)F)c2CNC(=O)[C@@H]1CC1CNc2ccccc21` (stereo partly drawn) [Example 136, (11S,14S,17S)-14-(4-Amino-butyl)-11-(3-amino-propyl)-25-chloro-17-(2,3-dihydro-1H-indol-3-ylmethyl)-16-methyl-22-trifluoromethyl-2-thia-4,10,13,16,19-pentaaza-tricyclo[19.4.0.0*3,8*]pentacosa-1(25),3,5,7,21,23-hexaene-12,15,18-trione] was tested, and the IC50 was 0.6 µM.
With `CN1C(=O)[C@H](CCCCN)NC(=O)[C@H](CCCN)NCc2ccccc2Sc2c(Cl)cc(-c3ccccc3)cc2CNC(=O)[C@@H]1Cc1c[nH]c2ccccc12` [Example 140, (12S,15S,18S)-15-(4-Amino-butyl)-18-(3-amino-propyl)-4-chloro-12-(1H-indol-3-ylmethyl)-13-methyl-6-phenyl-2-thia-10,13,16,19-tetraaza-tricyclo[19.4.0.0*3,8*]pentacosa-1(25),3,5,7,21,23-hexaene-11,14,17-trione] the IC50 was 0.6 µM.
Compound `CN1C(=O)[C@H](CCCCN)NC(=O)[C@H](CCCN)NCc2ccccc2Sc2c(Cl)cc(-c3ccccc3Cl)cc2CNC(=O)[C@@H]1Cc1c[nH]c2ccccc12` [Example 141, (12S,15S,18S)-15-(4-Amino-butyl)-18-(3-amino-propyl)-4-chloro-6-(2-chloro-phenyl)-12-(1H-indol-3-ylmethyl)-13-methyl-2-thia-10,13,16,19-tetraaza-tricyclo[19.4.0.0*3,8*]pentacosa-1(25),3,5,7,21,23-hexaene-11,14,17-trione] has an IC50 of 1.3 µM.

The compounds below were run on A. baumannii strain ATCC19606 (assay: Minimum inhibitory concentration (MIC) determination, microbroth dilution (CLSI)). Settings: Acinetobacter baumannii; A. baumannii ATCC19606; CAMHB; read after 20 hours; >=80% growth inhibition; read-out: ATCC19606 MIC.
Type: cell-based
How it was run: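 CLSI broth microdilution in cation-adjusted Mueller Hinton broth with twofold compound dilutions and ~5×10^5 CFU/ml inoculum, incubated at 35±2 °C. MIC read after 20 h as lowest concentration inhibiting ≥80% of growth, by eye and OD 600 nm.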
`CN1C(=O)[C@H](CCCCN)NC(=O)[C@H](CCCN)NCc2cccnc2Sc2c(Cl)cc(-c3ccnc(C#N)c3)cc2CNC(=O)[C@@H]1Cc1c[nH]c2ccccc12` [Example 229, 4-[(11S,14S,17S)-14-(4-Amino-butyl)-11-(3-amino-propyl)-25-chloro-17-(1H-indol-3-ylmethyl)-16-methyl-12,15,18-trioxo-2-thia-4,10,13,16,19-pentaaza-tricyclo[19.4.0.0*3,8*]pentacosa-1(21),3,5,7,22,24-hexaen-23-yl]-pyridine-2-carbonitrile] was tested, and the MIC was 1 µg/mL (≈ 1.24 µM).
Work on `CN1C(=O)[C@H](CCCCN)NC(=O)[C@H](CCCN)NCc2cccnc2Sc2c(Cl)ccc(-c3ccc(O)nc3)c2CNC(=O)[C@@H]1Cc1c[nH]c2ccccc12` [Example 230, (11S,14S,17S)-14-(4-Amino-butyl)-11-(3-amino-propyl)-25-chloro-22-(6-hydroxy-pyridin-3-yl)-17-(1H-indol-3-ylmethyl)-16-methyl-2-thia-4,10,13,16,19-pentaaza-tricyclo[19.4.0.0*3,8*]pentacosa-1(21),3,5,7,22,24-hexaene-12,15,18-trione] yielded an MIC of 0.12 µg/mL (≈ 0.15 µM).
`CN1C(=O)[C@H](CCCCN)NC(=O)[C@H](CCC(N)=O)NCc2cccnc2Sc2c(Cl)ccc(-c3ccnc(F)c3)c2CNC(=O)[C@@H]1Cc1c[nH]c2ccccc12` [Example 231, 3-[(11S,14S,17S)-14-(4-Amino-butyl)-25-chloro-22-(2-fluoro-pyridin-4-yl)-17-(1H-indol-3-ylmethyl)-16-methyl-12,15,18-trioxo-2-thia-4,10,13,16,19-pentaaza-tricyclo[19.4.0.0*3,8*]pentacosa-1(21),3,5,7,22,24-hexaen-11-yl]-propionamide] gave an MIC of 1 µg/mL (≈ 1.23 µM).
In the case of `CN1C(=O)[C@H](CCCCN)NC(=O)[C@H](CCCN)NCc2cccnc2Sc2c(Cl)cc(-c3cc[nH]c3)cc2CNC(=O)[C@@H]1Cc1c[nH]c2ccccc12` [Example 232, (11S,14S,17S)-14-(4-Amino-butyl)-11-(3-amino-propyl)-25-chloro-17-(1H-indol-3-ylmethyl)-16-methyl-23-(1H-pyrrol-3-yl)-2-thia-4,10,13,16,19-pentaaza-tricyclo[19.4.0.0*3,8*]pentacosa-1(25),3(8),4,6,21,23-hexaene-12,15,18-trione], the MIC is reported as 1 µg/mL (≈ 1.3 µM).
`Cc1[nH]c2ccccc2c1C[C@H]1C(=O)NCc2cc(C#N)cc(Cl)c2Sc2ncccc2CN[C@@H](CCCN)C(=O)N[C@@H](CCCCN)C(=O)N1C` [Example 233, (11S,14S,17S)-14-(4-Amino-butyl)-11-(3-amino-propyl)-25-chloro-16-methyl-17-(2-methyl-1H-indol-3-ylmethyl)-12,15,18-trioxo-2-thia-4,10,13,16,19-pentaaza-tricyclo[19.4.0.0*3,8*]pentacosa-1(25),3(8),4,6,21,23-hexaene-23-carbonitrile] showed an MIC of 0.25 µg/mL (≈ 0.336 µM).
Compound `Cc1[nH]c2ccccc2c1C[C@H]1C(=O)NCc2cc(-c3ccc(S(C)(=O)=O)cc3)cc(Cl)c2Sc2ncccc2CN[C@@H](CCCN)C(=O)N[C@@H](CCCCN)C(=O)N1C` [Example 234, (11S,14S,17S)-14-(4-Amino-butyl)-11-(3-amino-propyl)-25-chloro-23-(4-methanesulfonyl-phenyl)-16-methyl-17-(2-methyl-1H-indol-3-ylmethyl)-2-thia-4,10,13,16,19-pentaaza-tricyclo[19.4.0.0*3,8*]pentacosa-1(25),3(8),4,6,21,23-hexaene-12,15,18-trione] has an MIC of 2 µg/mL (≈ 2.29 µM).
Work on `Cc1[nH]c2ccccc2c1C[C@H]1C(=O)NCc2cc(-c3ccc(S(N)(=O)=O)cc3)cc(Cl)c2Sc2ncccc2CN[C@@H](CCCN)C(=O)N[C@@H](CCCCN)C(=O)N1C` [Example 235, 4-[(11S,14S,17S)-14-(4-Amino-butyl)-11-(3-amino-propyl)-25-chloro-16-methyl-17-(2-methyl-1H-indol-3-ylmethyl)-12,15,18-trioxo-2-thia-4,10,13,16,19-pentaaza-tricyclo[19.4.0.0*3,8*]pentacosa-1(25),3(8),4,6,21,23-hexaen-23-yl]-benzenesulfonamide] yielded an MIC of 0.5 µg/mL (≈ 0.572 µM).
